Measurements taken from patent US20220062240A1, “METHODS OF TREATING CANCER USING A CLK INHIBITOR” (BioSplice Therapeutics, Inc., priority 2018, published 2022).
Read-outs that look alike come from different tables or passages of the source. Values belong to the compound of their own block, whether it stands above or below them.

How the values were obtained:
Type in all cases: cell-based
[1] = system: haematopoietic & lymphoid tumors (13 cell lines); assay: CellTiter-Glo Viability Assay, haematopoietic & lymphoid tumors; conditions: Homo sapiens, inhibition of cancer cell proliferation
Description: (§1) Fifty-one human cancer cell lines (breast cancer (8 cell lines), colorectal cancer (6 cell lines), haematopoietic & lymphoid tumors (13 cell lines), liver cancer (3 cell lines), lung cancer (4 cell lines), ovarian cancer (4 cell lines), pancreatic cancer (8 cell lines), and prostate cancer (5 cell lines)) were tested to determine the effects of representative compounds of Formulas (I)-(XII) on cellular proliferation, as evaluated using the CellTiter-Glo® Viability Assay.
(§2) For the Cell Viability Assays, cells were plated at 300-3,000 cells/well in 384-well plates in their respective media containing 1% Penicillin-Streptomycin and incubated for four days at 37° C. and 5% CO2. Twenty-eight replicates of DMSO-treated cells served as controls and cells treated with compound were performed in duplicate.
(§3) After incubation, 10 μL of CellTiter-Glo® (Promega) was added to each well allowed to incubate for approximately 12 minutes. This reagent results in cell lysis and generation of a luminescent signal proportional to the amount of ATP present. The amount of ATP is directly proportional to the number of metabolically active, viable cells present in culture. The CellTiter-Glo® Assay generates a luminescent signal, produced by the luciferase reaction (Promega.com).
(§4) After incubation, the luminescence signal was read using an EnVision™ Multilabel Plate Reader (Perkin Elmer). Dose-response curves were generated and EC50 concentration values were calculated using Dotmatics' Studies Software (Bishops Stortford, UK).

all 50 cell lines = assay: CellTiter-Glo Viability Assay, average across all cell lines; conditions: Homo sapiens; across all 50 cell lines; read-out: average EC50 for inhibition of cancer cell proliferation
Description: as §1, §2, §3, §4

[2] = system: pancreatic cancer (8 cell lines); assay: CellTiter-Glo Viability Assay, pancreatic cancer; conditions: Homo sapiens, inhibition of cancer cell proliferation
Description: as §1, §2, §3, §4

[3] = system: ovarian cancer (4 cell lines); assay: CellTiter-Glo Viability Assay, ovarian cancer; conditions: Homo sapiens, inhibition of cancer cell proliferation
Description: as §1, §2, §3, §4

[4] = system: liver cancer (3 cell lines); assay: CellTiter-Glo Viability Assay, liver cancer; conditions: Homo sapiens, inhibition of cancer cell proliferation
Description: as §1, §2, §3, §4

[5] = system: prostate cancer (5 cell lines); assay: CellTiter-Glo Viability Assay, prostate cancer; conditions: Homo sapiens
Description: as §1, §2, §3, §4

[6] = system: colorectal cancer (6 cell lines); assay: CellTiter-Glo Viability Assay, colorectal cancer; conditions: Homo sapiens, inhibition of cancer cell proliferation
Description: as §1, §2, §3, §4

[7] = system: lung cancer (4 cell lines); assay: CellTiter-Glo Viability Assay, lung cancer; conditions: Homo sapiens, inhibition of cancer cell proliferation
Description: as §1, §2, §3, §4

MDA-MB-231-Luc = assay: CellTiter-Glo Viability Assay, breast cancer; conditions: Homo sapiens, 96 h; MDA-MB-231-Luc, breast cancer, four days; read-out: EC50
Description: as §1, §2, §3, §4

DU4475 = assay: CellTiter-Glo Viability Assay, breast cancer; conditions: Homo sapiens, DU-4475, 96 h; DU4475, breast cancer, four days; read-out: EC50
Description: as §1, §2, §3, §4

T47D = assay: CellTiter-Glo Viability Assay, breast cancer; conditions: Homo sapiens, 96 h, breast cancer, four days, read-out: EC50
Description: as §1, §2, §3, §4

MCF7 = assay: CellTiter-Glo Viability Assay, breast cancer; conditions: Homo sapiens, 96 h; MCF7, breast cancer, four days; read-out: EC50
Description: as §1, §2, §3, §4

HCC1599 = assay: CellTiter-Glo Viability Assay, breast cancer; conditions: Homo sapiens, 96 h; HCC1599, breast cancer, four days; read-out: EC50
Description: as §1, §2, §3, §4

BT-549 = assay: CellTiter-Glo Viability Assay, breast cancer; conditions: Homo sapiens, 96 h; BT-549, breast cancer, four days; read-out: EC50
Description: as §1, §2, §3, §4

ZR-75-1 = assay: CellTiter-Glo Viability Assay, breast cancer; conditions: Homo sapiens, 96 h; ZR-75-1, breast cancer, four days; read-out: EC50
Description: as §1, §2, §3, §4

CAMA1 = assay: CellTiter-Glo Viability Assay, breast cancer; conditions: Homo sapiens, CAMA-1, 96 h; CAMA1, breast cancer, four days; read-out: EC50
Description: as §1, §2, §3, §4

[8] = DND41, DND-41 cell line, read-out: Haematopoietic & Lymphoid tumors, EC50 (μM) DND-41
[9] = MV4-11, MV-4-11 cell line, read-out: Haematopoietic & Lymphoid tumors, EC50 (μM) MV-4-11
[10] = Rec1, REC-1 cell line, read-out: Haematopoietic & Lymphoid tumors, EC50 (μM) REC-1
[11] = SU-DHL-4, SUDHL4 cell line, read-out: Haematopoietic & Lymphoid tumors, EC50 (μM) SUDHL4
[12] = HL-60 cell line, read-out: Haematopoietic & Lymphoid tumors, EC50 (μM) HL-60
[13] = JM1 cell line, read-out: Haematopoietic & Lymphoid tumors, EC50 (μM) JM1
[14] = JURKAT, Clone E6-1 cell line, read-out: Haematopoietic & Lymphoid tumors, EC50 (μM) JURKAT, Clone E6-1
[15] = JeKo-1 cell line, read-out: Haematopoietic & Lymphoid tumors, EC50 (μM) JeKo-1
[16] = KASUMI-1 cell line, read-out: Haematopoietic & Lymphoid tumors, EC50 (μM) KASUMI-1
[17] = Loucy cell line, read-out: Haematopoietic & Lymphoid tumors, EC50 (μM) Loucy
[18] = MOLT-4 cell line, read-out: Haematopoietic & Lymphoid tumors, EC50 (μM) MOLT-4
[19] = TF-1 cell line, read-out: Haematopoietic & Lymphoid tumors, EC50 (μM) TF-1
[20] = TOLEDO cell line, read-out: Haematopoietic & Lymphoid tumors, EC50 (μM) TOLEDO
[21] = BXPC-3, BxPC3 cell line, read-out: Pancreatic cancer, EC50 BxPC3
[22] = CAPAN-1, Capan1 cell line, read-out: Pancreatic cancer, EC50 Capan1
[23] = Capan-2, Capan2 cell line, read-out: Pancreatic cancer, EC50 Capan2
[24] = MIA PaCa-2 cell line, read-out: Pancreatic cancer, EC50 MIA PaCa-2
[25] = PANC 05.04 cell line, read-out: Pancreatic cancer, EC50 PANC 05.04
[26] = PANC-1 cell line, read-out: Pancreatic cancer, EC50 PANC-1
[27] = UPAFII cell line, read-out: Pancreatic cancer, EC50 UPAFII
[28] = PA-1, PA1 cell line, read-out: Ovarian cancer, EC50 (μM) PA1
[29] = TOV112D, TOV-112D cell line, read-out: Ovarian cancer, EC50 (μM) TOV-112D
[30] = OV-90 cell line, read-out: Ovarian cancer, EC50 (μM) OV-90
[31] = OVCAR-3 cell line, read-out: Ovarian cancer, EC50 (μM) OVCAR-3
[32] = SNU-398, SNU398 cell line, read-out: Liver cancer, EC50 SNU398
[33] = HEPG2 cell line, read-out: Liver cancer, EC50 HEPG2
[34] = PLC/PRF/5 cell line, read-out: Liver cancer, EC50 PLC/PRF/5
[35] = DU-145, read-out: Prostate cancer EC50 Du-145
[36] = PC-3, PC3 cell line, inhibition of cancer cell proliferation, read-out: Prostate cancer EC50 PC3
[37] = 22Rv1 cell line, inhibition of cancer cell proliferation, read-out: Prostate cancer EC50 22Rv1
[38] = LNCap clone FGC cell line, inhibition of cancer cell proliferation, read-out: Prostate cancer EC50 LNCap clone FGC
[39] = VCaP (Sigma) cell line, inhibition of cancer cell proliferation, read-out: Prostate cancer EC50 VCaP (Sigma)
[40] = SW480 cell line, read-out: Colorectal cancer, EC50 (μM) SW480
[41] = A-427, A427 cell line, read-out: Lung cancer, EC50 (μM) A427
[42] = HCC78, HCC-78 cell line, read-out: Lung cancer, EC50 (μM) HCC-78
[43] = NCI-H460 cell line, read-out: Lung cancer, EC50 (μM) NCI-H460
[44] = NCI-H522 cell line, read-out: Lung cancer, EC50 (μM) NCI-H522

- EC50 [1, 8]: 0.031 µM
- EC50 [1, 9]: 0.005 µM
- EC50 [1, 10]: 0.109 µM
- EC50 [1, 11]: 0.036 µM
- EC50 [1, 12]: 0.121 µM
- EC50 [1, 13]: 0.026 µM
- EC50 [1, 14]: 0.17 µM
- EC50 [1, 15]: 0.017 µM
- EC50 [1, 16]: 0.058 µM
- EC50 [1, 17]: 0.041 µM
- EC50 [1, 18]: 0.254 µM
- EC50 [1, 19]: 0.108 µM
- EC50 [1, 20]: 0.022 µM
- EC50 [2, 21]: 361 nM
- EC50 [2, 22]: 569 nM
- EC50 [2, 23]: 94 nM
- EC50 [2, 24]: 41 nM
- EC50 [2, 25]: 453 nM
- EC50 [2, 26]: 2680 nM
- EC50 [2, 27]: 259 nM
- EC50 [3, 28]: 0.147 µM
- EC50 [3, 29]: 0.065 µM
- EC50 [3, 30]: 0.532 µM
- EC50 [3, 31]: 0.037 µM
- EC50 [4, 32]: 21 nM
- EC50 [4, 33]: 377 nM
- EC50 [4, 34]: 1770 nM
- EC50 [5, 35]: 98 nM
- EC50 [5, 36]: 55 nM
- EC50 [5, 37]: 117 nM
- EC50 [5, 38]: 234 nM
- EC50 [5, 39]: 162 nM
- EC50 ([6]; HCT-116, HCT116 cell line, read-out: Colorectal cancer, EC50 (μM) HCT116): 0.056 µM
- EC50 ([6]; HT-29, HT29 cell line, read-out: Colorectal cancer, EC50 (μM) HT29): 1.28 µM
- EC50 ([6]; SW-620, SW620 cell line, read-out: Colorectal cancer, EC50 (μM) SW620): 0.041 µM
- EC50 ([6]; DLD-1 cell line, read-out: Colorectal cancer, EC50 (μM) DLD-1): 0.136 µM
- EC50 ([6]; SW48 cell line, read-out: Colorectal cancer, EC50 (μM) SW48): 0.049 µM
- EC50 [6, 40]: 0.042 µM
- EC50 [7, 41]: 0.04 µM
- EC50 [7, 42]: 0.225 µM
- EC50 [7, 43]: > 3.5 µM
- EC50 [7, 44]: 0.04 µM
- EC50 (MDA-MB-231-Luc): 153 nM
- EC50 (DU4475): 57 nM
- EC50 (T47D): 167 nM
- EC50 (MCF7): 794 nM
- EC50 (HCC1599): 85 nM
- EC50 (BT-549): 75 nM
- EC50 (ZR-75-1): 145 nM
- EC50 (CAMA1): 167 nM
SMILES: c1cc2cc(c1)-c1cncc3[nH]c(nc13)-c1n[nH]c3ccc(cc13)-c1cncc(c1)CNC2 [Compound 54]
- EC50 (all 50 cell lines): 453 nM

- EC50 [1, 8]: 0.635 µM
- EC50 [1, 9]: 0.008 µM
- EC50 [1, 10]: 0.085 µM
- EC50 [1, 11]: 0.309 µM
- EC50 [1, 12]: 1.01 µM
- EC50 [1, 13]: 0.319 µM
- EC50 [1, 14]: 0.78 µM
- EC50 [1, 15]: 0.243 µM
- EC50 [1, 16]: 0.184 µM
- EC50 [1, 17]: 0.576 µM
- EC50 [1, 18]: 0.715 µM
- EC50 [1, 19]: 0.392 µM
- EC50 [1, 20]: 0.141 µM
- EC50 [2, 21]: 678 nM
- EC50 [2, 22]: 353 nM
- EC50 [2, 23]: 760 nM
- EC50 [2, 24]: 539 nM
- EC50 [2, 25]: 1280 nM
- EC50 [2, 26]: 1490 nM
- EC50 [2, 27]: 594 nM
- EC50 [3, 28]: 0.146 µM
- EC50 [3, 29]: 0.437 µM
- EC50 [3, 30]: 0.918 µM
- EC50 [3, 31]: 0.645 µM
- EC50 [4, 32]: 132 nM
- EC50 [4, 33]: 667 nM
- EC50 [4, 34]: 1260 nM
- EC50 [5, 35]: 665 nM
- EC50 [5, 36]: 557 nM
- EC50 [5, 37]: 803 nM
- EC50 [5, 38]: 508 nM
- EC50 [5, 39]: 2940 nM
- EC50 [6, 40]: 0.456 µM
- EC50 [7, 41]: 0.26 µM
- EC50 [7, 42]: 1.19 µM
- EC50 [7, 43]: 0.81 µM
- EC50 [7, 44]: 0.379 µM
- EC50 (MDA-MB-231-Luc): 106 nM
- EC50 (DU4475): 114 nM
- EC50 (T47D): 886 nM
- EC50 (MCF7): 989 nM
- EC50 (HCC1599): 209 nM
- EC50 (BT-549): 414 nM
- EC50 (ZR-75-1): 617 nM
- EC50 (CAMA1): 457 nM
SMILES: Cc1n[nH]c2ccc(-c3cncc(N[C@H]4CC[C@H](O)CC4)n3)cc12 [Compound 65]
- EC50 (all 50 cell lines): 615 nM
